Measurements from patent US4178449A, “Pyrazolo[1,5-a]pyrimidines and imidazo-[1,5-a]pyrimidines” (American Cyanamid Company, priority 1978, dated 1979).

How the values were obtained:
[1] = system: conflict situation (shocks taken) in Wistar strain rats; assay: non-conditioned passive avoidance (conflict) procedure; type: in vivo, rat; set-up: key: Active: The test compounds are considered active if the shocks received by the test group are significantly different from the control group by the Mann-Whitney U test; settings: oral or intraperitoneal, single or graded doses, tested at 30 or 60 minutes, 5 minute interval
Experimental: Another test which has been used to assess anti-anxiety effect is a non-conditioned passive avoidance procedure described by J. R. Vogel, B. Beer and D. E. Clody, "A Simple and Reliable Conflict Procedure for Testing Anti-Anxiety Agents", Psychopharmacologia, 21, 1-7 (1971). A conflict situation is induced in rats by a modification of this method. Groups of 6 naive, Wistar strain rats, weighing 200-240 g. each were deprived of water for 48 hours and food for 24 hours. The test compounds were administered in single or graded, oral or intraperitoneal doses suspended in a 2% starch vehicle containing 0.5% v/v polyethylene glycol and one drop of Polysorbate 80. Control animals received the vehicle alone. At 30 or 60 minutes each rat was placed in individual black plexiglass chambers. A 10% dextrose solution was available ad libitum from a tap located in the rear of the chamber. A 0.3 milliampere constant current 60 Hz pulsed DC shocking current was established between the stainless steel grid floor and the tap. After 20 seconds of non-shocked drinking, an alternating 5 second "shock-on" and 5 second "shock-off" cycle began and continued for a total of 5 minutes. The number of shocks taken by each rat during the 5 minute interval was recorded and compared to a control group. […]

[2] = system: 3H-diazepam binding to the brain receptors (rat frontal cortex P2-synaptosomal fraction); assay: inhibition of 3H-diazepam binding to brain receptors; set-up: key: Active: A compound which exhibits the ability to inhibit binding by ≥20% is considered to be active; settings: 3H-diazepam (1.5 mM.), 20 minutes in ice
Text: Another test used to measure anxiolytic activity comprises measurement of the ability of test compounds to inhibit the binding of ^3 H-diazepam to the brain receptors of warm-blooded animals. The test is described by R. F. Squires in Nature, 266, No. 21 page 732 (April 1977) and H. Mohler and T. Okada, Science, 198, 849 (1977). A modification of this test was employed wherein the animals used were male albino rats of the Wistar strain, weighing 150-200 g. each from Royalhart Farms. Diazepam (methyl-^3 H) was obtained from New England Nuclear. The test compounds were solubilized in either dimethylformamide, acetic acid, ethanol or hydrochloric acid. Frontal cortex of rats was homogenized gently in 20 volumes of ice-cold 0.32 M. sucrose, centrifuged twice at 1000 g. for 10 minutes and then recentrifuged at 30,000 g. for 20 minutes to produce a crude P2 -synaptosomal fraction. The P2 -fraction was resuspended, twice the original volume, in hypotonic 50 mM. Tris.HCl (pH 7.4). The binding assay consisted of 300 μl. of the P2 -fraction suspension (0.350 mg.), 100 μl. of test drug and 100 μl. of ^3 H-diazepam ([…].),. which was added to 1.5 ml. of 50 mM. Tris.HCl (pH 7.4). Non-specific binding controls and total binding controls received 100 μl. of diazepam (3 μm.) and 100 μl. of deionized water, respectively, in place of the test compound. Incubation for 20 minutes proceeded in ice and was terminated by filtration, under vacuum, through Whatman GF/C glass fiber filters. The filters were washed twice with 5 ml. of ice-cold 50 mM. Tris.HCl (pH 7.4) and placed in scintillation vials. After drying at 50°-60° C. for 30 minutes, 10 ml. of Beckman Ready-Solve HP was added and the radioactivity determined in a Beckman Scintillation Counter. The percentage of inhibition of diazepam binding is calculated for each compound. […] Representative compounds of the present invention which were active when tested by the diazepam binding assay are set forth in Table III below.

[3] = system: pentylenetetrazole clonic seizures in rats; assay: protection from convulsions resulting from the administration of pentylenetetrazole; type: in vivo, rat; set-up: key: Active: The test compounds are considered active if they protect 50% or more of the rats from clonic seizures; settings: oral or intraperitoneal, single or graded doses, pentylenetetrazole 21 to 23 mg./kg. i.v. at 30 or 60 minutes
Experimental: The anti-anxiety properties of the novel compounds of the present invention have been established in a test which indicates anxiolytic activity by the measure of protection from convulsions resulting from the administration of pentylenetetrazole. Single or graded dose levels of the test compounds were administered orally or intraperitoneally in a 2% starch vehicle, to groups of at least 4 rats. At 30 or 60 minutes, the rats were treated intravenously with pentylenetetrazole at a dose of 21 to 23 mg./kg. of body weight. This dose is estimated to cause clonic seizures in 99% of unprotected rats. The test compounds are considered active if they protect 50% or more of the rats from clonic seizures. It has been reported [R. T. Hill and D. H. Tedeschi, "Animal Testing and Screening Procedures in Evaluating Psychotropic Drugs" in "An Introduction to Psychopharmacology", Eds. R. R. Rech and K. E. Moore, Raven Press, New York, pp. 237-288 (1971)] that there is a high degree of correlation between antagonism of pentylenetetrazole seizures in rats and anti-anxietyeffects in higher warm-blooded animals.

Row | Compound | Result (number of shocks taken vs control, conflict procedure) [1] | Result (inhibition of 3H-diazepam binding) [2] | Result (protection from pentylenetetrazole clonic seizures) [3]
1 | c1ccc(-c2ccnc3ccnn23)cc1 [Example 1, 7-Phenylpyrazolo[1,5-a]pyrimidine] | Active | Active | 
2 | N#Cc1cnn2c(-c3cccc(C(F)(F)F)c3)ccnc12 [Example 3, 7-(α,α,α-Trifluoro-m-tolyl)pyrazolo[1,5-a]pyrimidine-3-carbonitrile] | Active | Active | Active
3 | Cc1nn2c(-c3cccc(C(F)(F)F)c3)ccnc2c1C#N [Example 11, 2-Methyl-7-(α,α,α-trifluoro-m-tolyl)pyrazolo[1,5-a]pyrimidine-3-carbonitrile] | Active | Active | Active
4 | FC(F)(F)c1cccc(-c2ccnc3ccnn23)c1 [Example 12, 7-(α,α,α-Trifluoro-m-tolyl)pyrazolo[1,5-a]pyrimidine] |  | Active | Active
5 | FC(F)(F)c1cccc(-c2ccnc3c(Cl)cnn23)c1 [Example 14, 3-Chloro-7-(α,α,α-trifluoro-m-tolyl)pyrazolo[1,5-a]pyrimidine] |  | Active | Active
6 | FC(F)(F)c1cccc(-c2ccnc3c(Br)cnn23)c1 [Example 15, 3-Bromo-7-(α,α,α-trifluoro-m-tolyl)pyrazolo[1,5-a]pyrimidine] |  | Active | Active
7 | N#Cc1c(C(N)=O)nn2c(-c3cccc(C(F)(F)F)c3)ccnc12 [Example 19, 3-Cyano-7-(α,α,α-trifluoro-m-tolyl)pyrazolo[1,5-a]pyrimidine-2-carboxamide] |  | Active | Active
8 | N#Cc1cnn2c(-c3ccccc3C(F)(F)F)ccnc12 [Example 21, 7-(α,α,α-Trifluoro-o-tolyl)pyrazolo[1,5-a]pyrimidine-3-carbonitrile] | Active |  | 
9 | Cc1cnc2c(C#N)cnn2c1-c1cccc(C(F)(F)F)c1 [Example 23, 6-Methyl-7-(α,α,α-trifluoro-m-tolyl)pyrazolo-[1,5-a]pyrimidine-3-carbonitrile] |  | Active | Active
10 | Cc1cnc2ccnn2c1-c1cccc(C(F)(F)F)c1 [Example 24, 6-Methyl-7-(α,α,α-trifluoro-m-tolyl)pyrazolo[1,5-a]pyrimidine] | Active | Active | 
11 | Cc1cnc2c(Cl)cnn2c1-c1cccc(C(F)(F)F)c1 [Example 25, 3-Chloro-6-methyl-7-(α,α,α-trifluoro-m-tolyl)pyrazolo[1,5-a]pyrimidine] | Active | Active | 
12 | COc1cccc(-c2ccnc3c(C#N)cnn23)c1 [Example 27, 7-(m-Methoxyphenyl)pyrazolo[1,5-a]pyrimidine-3-carbonitrile] |  | Active | Active
13 | O=Cc1cnn2c(-c3cccc(C(F)(F)F)c3)ccnc12 [Example 48, 7-(α,α,α-Trifluoro-m-tolyl)pyrazolo[1,5-a]pyrimidine-3-carboxaldehyde] |  |  | Active
14 | ON=Cc1cnn2c(-c3cccc(C(F)(F)F)c3)ccnc12 [Example 49, 7-(α,α,α-Trifluoro-m-tolyl)pyrazolo[1,5-a]pyrimidine-3-carboxaldehyde, oxime] |  |  | Active
15 | CC(=O)c1cnn2c(-c3cccc(C(F)(F)F)c3)ccnc12 [Example 54, Methyl 7-(α,α,α-trifluoro-m-tolyl)pyrazolo[1,5-a]pyrimid-3-yl ketone] |  |  | Active
16 | CCOC(=O)c1ncn2c(-c3cccc(C(F)(F)F)c3)ccnc12 [Example 56, Ethyl 4-(α,α,α-trifluoro-m-tolyl)imidazolo[1,5-a]pyrimidine-8-carboxylate] |  |  | Active
17 | CCOC(=O)c1cnn2c(-c3ccc(OC)c(OC)c3)ccnc12 [Example 59, Ethyl 7-(3,4-dimethoxyphenyl)pyrazolo[1,5-a]pyrimidine-3-carboxylate] |  |  | Active
18 | CCOC(=O)c1cnn2c(-c3ccc(CC)cc3)ccnc12 [Example 61, Ethyl 7-(p-ethylphenyl)pyrazolo[1,5-a]pyrimidine-3-carboxylate] |  |  | Active
19 | CCOC(=O)c1cnn2c(-c3ccc(C)c(C)c3)ccnc12 [Example 63, Ethyl 7-(3,4-xylyl)pyrazolo[1,5-a]pyrimidine-3-carboxylate] |  |  | Active
20 | FC(F)(F)c1cccc(-c2ccn3nccc3n2)c1 [Example 66, 5-(α,α,α-Trifluoro-m-tolyl)pyrazolo[1,5-a]pyrimidine] |  |  | Active
21 | c1ccc(-c2ccn3nccc3n2)cc1 [Example 67, 5-Phenylpyrazolo[1,5-a]pyrimidine] |  |  | Active
22 | N#Cc1cnn2c(-c3cccc(F)c3)ccnc12 [Example 76, 7-(m-Fluorophenyl)pyrazolo[1,5-a]pyrimidine-3-carbonitrile] |  |  | Active
23 | CCOC(=O)c1cnn2c(-c3cccc(C)c3)ccnc12 [Example 77, Ethyl 7-(m-tolyl)pyrazolo[1,5-a]pyrimidine-3-carboxylate] |  |  | Active
24 | CN(C)CCOC(=O)c1cnn2c(-c3cccc(C(F)(F)F)c3)ccnc12 [Example 79, 2-Dimethylaminoethyl 7-(α,α,α-trifluoro-m-tolyl)pyrazolo[1,5-a]-pyrimidine-3-carboxylate] |  |  | Active
25 | COCc1cnn2c(-c3cccc(C(F)(F)F)c3)ccnc12 [Example 80, 3-(Methoxymethyl)-7-(α,α,α-trifluoro-m-tolyl)pyrazolo[1,5-a]-pyrimidine] |  |  | Active
